Legend:
Type in all cases: in vivo, human
[1] = test system: patients with diabetic retinopathy; assay: Experimental use: vasodilators applied to patients' eyes, progression monitored at follow-up appointments; conditions: applied to the eye; based on prior experience and observation during treatment of patients
[2] = test system: patient diagnosed with diabetic retinopathy; assay: Treatment of a patient diagnosed with diabetic retinopathy, one eye treated and the other left untreated
Text: A patient is diagnosed with diabetic retinopathy. A composition comprising the calcium channel blocker nifedipine is directly applied to the vitreous surface of one eye while the other eye is left untreated. […] A patient is diagnosed with diabetic retinopathy. A composition comprising the ACE inhibitor enalapril is directly applied to the vitreous surface of one eye while the other eye is left untreated. […] A patient is diagnosed with diabetic retinopathy. A composition comprising the angiotensin receptor blocker losartan is directly applied to the vitreous surface of one eye while the other eye is left untreated. […] A patient is diagnosed with diabetic retinopathy. A composition comprising the calcium channel blocker nifedipine is applied to the eye by intravitreal or intraocular injection while the other eye is left untreated. […] A patient is diagnosed with diabetic retinopathy. A composition comprising the ACE inhibitor enalapril is applied to the eye by intravitreal or intraocular injection while the other eye is left untreated. […] A patient is diagnosed with diabetic retinopathy. A composition comprising the angiotensin receptor blocker losartan is applied to the eye by intravitreal or intraocular injection while the other eye is left untreated.

[3] = test system: patient successfully treated for diabetic retinopathy; assay: Prevention of recurrence in a patient successfully treated for diabetic retinopathy, one eye treated and the other left untreated; conditions: untreated eye shows signs of recurrence
Text: A composition comprising the calcium channel blocker nifedipine is directly applied to the vitreous surface of one eye while the other eye is left untreated. […] A composition comprising the ACE inhibitor enalapril is directly applied to the vitreous surface of one eye while the other eye is left untreated. […] A composition comprising the angiotensin receptor blocker losartan is directly applied to the vitreous surface of one eye while the other eye is left untreated. […] A composition comprising the calcium channel blocker nifedipine is applied to the eye by intravitreal or intraocular injection while the other eye is left untreated. […] A composition comprising the ACE inhibitor enalapril is applied to the eye by intravitreal or intraocular injection while the other eye is left untreated. […] A composition comprising the angiotensin receptor blocker losartan is applied to the eye by intravitreal or intraocular injection while the other eye is left untreated.

[4] = test system: patient with diabetic retinopathy; assay: Topical ramiprilat formulation to the eye of a patient with diabetic retinopathy
Description: In this example, a patient with diabetic retinopathy is administered a topical formulation comprising ramiprilat to the eye. […] The diabetic retinopathy is therefore treated by the topical formulation.

[5] = composition applied by intravitreal or intraocular injection
[6] = composition directly applied to the vitreous surface of one eye

| Compound | effectiveness for the treatment of diabetic retinopathy or its symptoms [1] | symptoms of diabetic retinopathy, treated eye compared to untreated eye [2, 5] | symptoms of diabetic retinopathy, treated eye compared to untreated eye [2, 6] | development (recurrence) of diabetic retinopathy in the treated eye [3, 5] | development (recurrence) of diabetic retinopathy in the treated eye [3, 6] | other results |
| --- | --- | --- | --- | --- | --- | --- |
| CCCC(=O)OCOC(=O)C1=C(C)NC(C)=C(C(=O)OC)C1c1cccc(Cl)c1Cl (stereo not drawn) [clevidipine] | effective |  |  |  |  |  |
| CCOC(=O)[C@H](CCc1ccccc1)N[C@@H](C)C(=O)N1CCC[C@H]1C(=O)O [enalapril] |  | reduced symptoms of diabetic retinopathy | reduced symptoms of diabetic retinopathy | not develop diabetic retinopathy | not develop diabetic retinopathy |  |
| COC(=O)C1=C(C)NC(C)=C(C(=O)OC(C)C)C1c1cccc2nonc12 (stereo not drawn) [isradipine] | effective |  |  |  |  |  |
| CCCCc1nc(Cl)c(CO)n1Cc1ccc(-c2ccccc2-c2nn[nH]n2)cc1 [losartan] |  | reduced symptoms of diabetic retinopathy | reduced symptoms of diabetic retinopathy | not develop diabetic retinopathy | not develop diabetic retinopathy |  |
| Ramiprilat |  |  |  |  |  | capillary blood supply to the eye [4]: increases the capillary blood supply; capillary networks in the eye [4]: grows capillary networks; diabetic retinopathy outcome [4]: treated; intraocular pressure [4]: reduction in intraocular pressure; optic nerve [4]: repair to the optic nerve |

Source: patent US20250262195A1, “METHOD TO PREVENT AND TREAT DIABETIC RETINOPATHY BY CALCIUM CHANNEL BLOCKERS, ANGIOTENSIN CONVERTING ENZYME INHIBITORS, AND ANGIOTENSIN RECEPTOR BLOCKERS” (priority 2022, published 2025)
